How the values were obtained:
Type in all cases: biochemical
[1] = target: PDE4D3 (Homo sapiens, UniProt Q08499); assay: Inhibition assay of PDE4D3 enzyme (TR-FRET kit)
Method: 2. Inhibition assay of PDE4D3 enzyme:
(§1) Materials and Instruments:
FAM substrate: A stock solution of 20 μM FAM substrate was diluted to 200 nM with PDE assay buffer. 12.5 μL of the diluted substrate was added to each reaction well.
(§2) 5 μL of the compound stock solution was added to 45 μL of DMSO to prepare a 1 mM diluent. 5 μL of the 1 mM diluent was added to 45 μL of PDE assay buffer to prepare a gradient dilution starting point. Then, according to the method of adding 5 μL of the previous concentration solution to 15 μL of PDE assay buffer, gradient dilution was carried out for 9 times to prepare compound working solutions with 10 concentrations. The working solutions were added to compound wells at 2.5 μL/well.
PDE4D3: 0.054 μL of a PDE4D3 recombinase stock solution was added to 1500 μL of PDE buffer, and the mixture was added to all compound wells and positive control wells at 10 μL/well. 10 μL of PDE assay buffer was added to substrate control wells.
Binding solution: 3750 μL of binding buffer A and 3750 μL of binding buffer B were mixed well. Then, 150 μL of a binder was added into the mixture and mixed well. 7.5 μL of a Tb donor was added and mixed well. The obtained mixture was added to all wells at 50 μL/well.
S520=Read value of sample 520 nm
S490=Read value of sample 490 nm
Tb520=Read value of Tb only 520 nm
Tb490=Read value of Tb only 490 nm
FRETp=Positive control FRET
FRETsub=Substrate control FRET.

[2] = target: T1, PDE4A1 (Homo sapiens, UniProt P27815); assay: Inhibition assay of PDE4A1 enzyme (FP kit)
T1 construct: purchased BPS 60340
Method: 3. Inhibition assay of PDE4A1 enzyme:
as §1
(§3) FAM substrate: 25 μL of a FAM substrate stock solution was added into 2500 μL of PDE assay buffer. 25 μL of the diluted substrate was added to each reaction well.
as §2, with “5” for “2.5”
(§4) PDE4A1: First, a PDE4A1 stock solution was diluted by 100 times to a concentration of 4.9 ng/μL, 1.8 μL of the diluent was added to 2200 μL of PDE assay buffer, and the mixture was added to all compound wells and positive control wells at 20 μL/well. 20 μL of PDE assay buffer was added to substrate control wells.
Binding solution: 95 μL of binding buffer was added into 9.5 mL of binder diluent, and then mixed well. The obtained mixture was added to all wells at 100 μL/well.
(§5) FPsub=Substrate control FP.

[3] = target: T2, PDE4B2 (Homo sapiens, UniProt Q07343); assay: Inhibition assay of PDE4B2 enzyme (FP kit)
T2 construct: purchased BPS 60343
Method: 4. Inhibition assay of PDE4B2 enzyme:
as §1, §3
as §2, with “5” for “2.5”
as §4, with “PDE4B2:” for “PDE4A1:”, “PDE4B2” for “PDE4A1”, “5.2” for “4.9”, “3.2” for “1.8”
Binding solution: 95 μL of binder was added into 9.5 mL of binder diluent, and then mixed well. The obtained mixture was added to all wells at 100 μL/well.
as §5

[4] = target: T3, PDE4C1 (Homo sapiens, UniProt Q08493); assay: Inhibition assay of PDE4C1 enzyme (FP kit)
T3 construct: purchased BPS 60384
Method: 5. Inhibition assay of PDE4C1 enzyme:
as §1
FAM substrate: 12.5 μL of a FAM substrate stock solution was added into 1250 μL of PDE assay buffer. 12.5 μL of the diluted substrate was added to each reaction well.
as §2
as §4, with “PDE4C1:” for “PDE4A1:”, “PDE4C1” for “PDE4A1”, “3.2” for “4.9”, “13.75” for “1.8”, “1100” for “2200”, “10” for “20”
Binding solution: 50 μL of binder was added into 5 mL of binder diluent, and then mixed well. The obtained mixture was added to all wells at 50 μL/well.
as §5

[5] = target: PDE1C (Homo sapiens, UniProt Q14123); assay: Selective inhibitory activity assay, PDE1C; settings: read-out: Inhibition rate (%) of PDE1C
Method: (§6) 7. Selective inhibitory activity assay for PDE1, 2, 3, 5, 7, 10 and 11 enzymes
(§7) The selective specificity of compounds for PDE4 was assessed by assaying single concentrations of the compounds. For example, PDE1a enzyme, PDElc enzyme, PDE2a enzyme, PDE3a enzyme, PDE3b enzyme, PDE5a1 enzyme, PDE7a enzyme, PDE7b enzyme, PDE10a1 enzyme and PDE11a4 enzyme were tested. The selective inhibitory effects of different compounds on the enzymatic activities of PDEIC, PDE2A, PDE3B, PDE5A1, PDE7A, and PDE10A1 at concentrations of 10 μM and 1 μM, respectively, are shown in the table below: […]

[6] = target: PDE2A (Homo sapiens, UniProt O00408); assay: Selective inhibitory activity assay, PDE2A; settings: read-out: Inhibition rate (%) of PDE2A
Method: as §6, §7

[7] = target: PDE3B (Homo sapiens, UniProt Q13370); assay: Selective inhibitory activity assay, PDE3B; settings: read-out: Inhibition rate (%) of PDE3B
Method: as §6, §7

[8] = target: PDE5A1 (Homo sapiens, UniProt O76074); assay: Selective inhibitory activity assay, PDE5A1; settings: read-out: Inhibition rate (%) of PDE5A1
Method: as §6, §7

[9] = target: PDE7A (Homo sapiens, UniProt Q13946); assay: Selective inhibitory activity assay, PDE7A; settings: read-out: Inhibition rate (%) of PDE7A
Method: as §6, §7

[10] = target: PDE10A1 (Homo sapiens, UniProt Q9Y233); assay: Selective inhibitory activity assay, PDE10A1; settings: read-out: Inhibition rate (%) of PDE10A1
Method: as §6, §7

Chain of PDE1C (Q14123 whole entry, species assumed): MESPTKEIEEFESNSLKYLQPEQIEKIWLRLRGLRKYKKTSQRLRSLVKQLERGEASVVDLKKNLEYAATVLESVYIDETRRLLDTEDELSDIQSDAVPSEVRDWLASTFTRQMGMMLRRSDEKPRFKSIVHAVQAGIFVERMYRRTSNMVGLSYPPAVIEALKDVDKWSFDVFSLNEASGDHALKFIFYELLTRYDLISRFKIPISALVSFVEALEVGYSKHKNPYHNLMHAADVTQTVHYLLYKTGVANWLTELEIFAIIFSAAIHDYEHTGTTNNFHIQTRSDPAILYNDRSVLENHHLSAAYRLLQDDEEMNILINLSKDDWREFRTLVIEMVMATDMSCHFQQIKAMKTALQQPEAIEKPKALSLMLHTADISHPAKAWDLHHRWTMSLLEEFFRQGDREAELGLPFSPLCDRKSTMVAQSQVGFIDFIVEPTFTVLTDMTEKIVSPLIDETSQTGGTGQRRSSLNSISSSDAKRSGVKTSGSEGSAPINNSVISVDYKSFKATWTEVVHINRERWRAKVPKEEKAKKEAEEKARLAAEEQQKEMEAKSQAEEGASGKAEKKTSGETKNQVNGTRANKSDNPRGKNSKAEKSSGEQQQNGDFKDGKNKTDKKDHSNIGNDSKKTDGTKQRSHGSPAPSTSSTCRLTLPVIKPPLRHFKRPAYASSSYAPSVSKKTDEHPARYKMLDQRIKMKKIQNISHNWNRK
T2 sequence (Q07343 1-564 isoform Q07343-2): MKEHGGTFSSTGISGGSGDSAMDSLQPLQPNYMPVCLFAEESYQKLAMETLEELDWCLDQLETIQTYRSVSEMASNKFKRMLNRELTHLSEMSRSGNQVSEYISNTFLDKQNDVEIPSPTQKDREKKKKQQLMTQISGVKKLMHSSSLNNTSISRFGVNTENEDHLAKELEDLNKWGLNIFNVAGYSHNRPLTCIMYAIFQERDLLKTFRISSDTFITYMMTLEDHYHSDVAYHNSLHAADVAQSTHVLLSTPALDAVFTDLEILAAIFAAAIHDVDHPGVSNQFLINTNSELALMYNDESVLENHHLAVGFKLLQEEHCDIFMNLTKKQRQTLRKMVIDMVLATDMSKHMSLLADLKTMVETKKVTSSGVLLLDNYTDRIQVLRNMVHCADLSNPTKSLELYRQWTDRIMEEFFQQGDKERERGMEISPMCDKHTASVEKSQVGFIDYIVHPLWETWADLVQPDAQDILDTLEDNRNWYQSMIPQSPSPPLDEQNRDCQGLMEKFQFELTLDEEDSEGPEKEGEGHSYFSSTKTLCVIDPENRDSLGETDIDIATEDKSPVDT
Chain of PDE2A (O00408 whole entry, species assumed): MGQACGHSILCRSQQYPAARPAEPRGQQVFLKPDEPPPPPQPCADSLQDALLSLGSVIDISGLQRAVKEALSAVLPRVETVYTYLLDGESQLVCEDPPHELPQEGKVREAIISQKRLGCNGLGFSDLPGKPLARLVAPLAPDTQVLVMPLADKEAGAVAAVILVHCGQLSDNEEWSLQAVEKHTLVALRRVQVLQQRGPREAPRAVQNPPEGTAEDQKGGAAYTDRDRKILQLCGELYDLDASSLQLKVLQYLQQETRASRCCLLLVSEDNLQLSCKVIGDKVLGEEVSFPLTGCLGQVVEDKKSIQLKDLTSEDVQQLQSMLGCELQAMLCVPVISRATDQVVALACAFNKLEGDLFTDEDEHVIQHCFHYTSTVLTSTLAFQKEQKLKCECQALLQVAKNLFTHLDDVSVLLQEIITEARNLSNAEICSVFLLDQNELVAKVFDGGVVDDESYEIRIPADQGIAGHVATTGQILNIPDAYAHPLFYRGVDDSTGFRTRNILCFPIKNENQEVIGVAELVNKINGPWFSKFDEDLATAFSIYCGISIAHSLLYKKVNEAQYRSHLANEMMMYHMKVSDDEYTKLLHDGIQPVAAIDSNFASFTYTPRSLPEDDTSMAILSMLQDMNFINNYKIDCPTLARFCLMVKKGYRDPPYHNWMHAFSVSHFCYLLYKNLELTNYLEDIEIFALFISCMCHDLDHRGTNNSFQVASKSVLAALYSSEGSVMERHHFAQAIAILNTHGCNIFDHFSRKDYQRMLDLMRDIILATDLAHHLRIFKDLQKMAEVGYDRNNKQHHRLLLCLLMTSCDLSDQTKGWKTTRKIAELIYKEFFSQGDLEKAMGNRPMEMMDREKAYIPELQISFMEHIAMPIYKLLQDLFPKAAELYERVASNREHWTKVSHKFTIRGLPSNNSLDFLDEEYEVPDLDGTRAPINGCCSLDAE
T3 sequence (Q08493 whole entry): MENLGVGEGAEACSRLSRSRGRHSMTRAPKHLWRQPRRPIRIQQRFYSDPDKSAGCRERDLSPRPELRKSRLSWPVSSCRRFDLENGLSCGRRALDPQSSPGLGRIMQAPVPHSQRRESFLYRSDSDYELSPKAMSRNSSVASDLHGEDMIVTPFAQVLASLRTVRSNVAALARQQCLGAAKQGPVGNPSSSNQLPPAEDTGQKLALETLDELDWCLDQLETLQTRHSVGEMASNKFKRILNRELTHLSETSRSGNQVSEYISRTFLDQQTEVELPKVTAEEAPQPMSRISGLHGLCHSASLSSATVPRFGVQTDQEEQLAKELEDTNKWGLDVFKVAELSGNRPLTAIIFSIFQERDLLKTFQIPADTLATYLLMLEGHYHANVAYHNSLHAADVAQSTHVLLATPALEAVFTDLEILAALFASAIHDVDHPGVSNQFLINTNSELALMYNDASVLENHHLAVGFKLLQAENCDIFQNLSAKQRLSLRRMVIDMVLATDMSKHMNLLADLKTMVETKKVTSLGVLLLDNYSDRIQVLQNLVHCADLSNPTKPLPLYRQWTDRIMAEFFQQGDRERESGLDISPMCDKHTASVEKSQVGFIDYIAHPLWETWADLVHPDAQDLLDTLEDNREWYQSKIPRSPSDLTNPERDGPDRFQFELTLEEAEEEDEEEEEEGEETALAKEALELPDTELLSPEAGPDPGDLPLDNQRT
Chain of PDE7A (Q13946 whole entry, species assumed): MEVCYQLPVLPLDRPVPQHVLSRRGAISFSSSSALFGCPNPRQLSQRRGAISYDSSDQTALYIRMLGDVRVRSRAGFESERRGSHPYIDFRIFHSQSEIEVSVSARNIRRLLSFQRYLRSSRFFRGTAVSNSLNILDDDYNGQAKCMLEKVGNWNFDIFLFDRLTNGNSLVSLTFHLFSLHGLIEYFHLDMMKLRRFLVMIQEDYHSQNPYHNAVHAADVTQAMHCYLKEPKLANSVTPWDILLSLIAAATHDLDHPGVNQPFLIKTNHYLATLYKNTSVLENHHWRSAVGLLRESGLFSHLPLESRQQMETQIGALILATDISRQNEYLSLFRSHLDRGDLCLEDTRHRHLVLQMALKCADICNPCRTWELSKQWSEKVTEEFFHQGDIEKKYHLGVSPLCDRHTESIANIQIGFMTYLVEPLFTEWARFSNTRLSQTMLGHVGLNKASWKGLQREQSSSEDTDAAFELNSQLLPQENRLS
T1 sequence (P27815 1-647 isoform P27815-4): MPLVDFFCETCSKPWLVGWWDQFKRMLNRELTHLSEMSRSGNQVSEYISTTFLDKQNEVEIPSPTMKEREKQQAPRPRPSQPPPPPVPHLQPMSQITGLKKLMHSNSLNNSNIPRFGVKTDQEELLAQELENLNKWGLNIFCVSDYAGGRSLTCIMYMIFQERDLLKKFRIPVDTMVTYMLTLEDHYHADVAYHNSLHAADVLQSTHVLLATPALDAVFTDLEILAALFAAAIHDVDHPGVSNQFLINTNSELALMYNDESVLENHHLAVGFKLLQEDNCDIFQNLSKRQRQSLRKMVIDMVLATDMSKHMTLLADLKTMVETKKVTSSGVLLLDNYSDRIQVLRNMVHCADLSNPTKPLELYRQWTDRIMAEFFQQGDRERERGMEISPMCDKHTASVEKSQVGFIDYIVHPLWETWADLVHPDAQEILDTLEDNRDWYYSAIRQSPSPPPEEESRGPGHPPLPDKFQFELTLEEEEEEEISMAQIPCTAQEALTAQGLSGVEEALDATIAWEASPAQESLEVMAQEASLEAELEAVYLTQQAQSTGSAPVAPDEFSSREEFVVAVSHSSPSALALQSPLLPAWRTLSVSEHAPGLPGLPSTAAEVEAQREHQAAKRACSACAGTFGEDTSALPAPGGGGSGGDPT
Chain of PDE4D3 (Q08499 1-673 isoform Q08499-2): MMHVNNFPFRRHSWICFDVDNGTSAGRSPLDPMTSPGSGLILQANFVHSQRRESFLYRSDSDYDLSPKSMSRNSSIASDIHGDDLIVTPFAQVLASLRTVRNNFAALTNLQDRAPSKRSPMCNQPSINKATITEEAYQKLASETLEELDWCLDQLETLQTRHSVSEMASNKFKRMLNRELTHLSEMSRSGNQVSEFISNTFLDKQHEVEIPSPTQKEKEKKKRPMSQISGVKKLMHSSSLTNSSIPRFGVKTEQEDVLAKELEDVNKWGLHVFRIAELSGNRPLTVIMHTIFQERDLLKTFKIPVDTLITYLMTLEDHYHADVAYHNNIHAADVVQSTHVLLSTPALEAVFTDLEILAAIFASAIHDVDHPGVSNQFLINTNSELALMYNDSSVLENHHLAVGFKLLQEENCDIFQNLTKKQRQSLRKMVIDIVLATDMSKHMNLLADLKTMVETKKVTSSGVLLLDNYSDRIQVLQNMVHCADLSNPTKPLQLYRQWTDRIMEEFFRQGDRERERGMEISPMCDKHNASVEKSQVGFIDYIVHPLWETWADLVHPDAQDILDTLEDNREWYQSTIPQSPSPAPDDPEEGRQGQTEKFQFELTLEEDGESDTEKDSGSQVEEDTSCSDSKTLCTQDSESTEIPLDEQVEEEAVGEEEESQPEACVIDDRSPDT

| SMILES | IC50 [1] [nM] | IC50 [2] [nM] | IC50 [3] [nM] | IC50 [4] [nM] | inhibition at 1 µM [5] [%] | inhibition at 10 µM [5] [%] | inhibition at 1 µM [6] [%] | inhibition at 10 µM [6] [%] | inhibition at 1 µM [7] [%] | inhibition at 10 µM [7] [%] | inhibition at 1 µM [8] [%] | inhibition at 10 µM [8] [%] | inhibition at 1 µM [9] [%] | inhibition at 10 µM [9] [%] | inhibition at 1 µM [10] [%] | inhibition at 10 µM [10] [%] |
| --- | --- | --- | --- | --- | --- | --- | --- | --- | --- | --- | --- | --- | --- | --- | --- | --- |
| CCCCCc1ccc(NC(=O)CCCCl)c2c1C(=O)N([C@H](CS(C)(=O)=O)c1ccc(OC)c(OCC)c1)C2=O [Example 5, (S)-2-[1-(3-ethoxy-4-methoxyphenyl)-2-alkylsulfonylethyl]-4-(γ-chlorobutyramido)-7-pentyl isoindoline-1,3-diketone] | 10 to 50 | < 100 | < 100 | 200 to 500 | 8.26 | 30.8 | 0.83 | 9.01 | 0.06 | -0.69 | 0.66 | 8.39 | 0 | 1.94 | 2.21 | 5.46 |
| [2H]C([2H])(CCCC)c1ccc(NC(C)=O)c2c1C(=O)N([C@H](CS(C)(=O)=O)c1ccc(OC)c(OCC)c1)C2=O [Example 32] | < 5 | < 100 | < 100 | < 200 | – | – | – | – | – | – | – | – | – | – | – | – |
| CCCCC(O)c1ccc(NC(C)=O)c2c1C(=O)N([C@H](CS(C)(=O)=O)c1ccc(OC)c(OCC)c1)C2=O (mixture of isomers) [Example 55] | < 5 | < 100 | < 100 | < 200 | – | – | – | – | – | – | – | – | – | – | – | – |
| [2H]c1c([2H])c(NC(C)=O)c2c(c1CCCCC)C(=O)N([C@H](CS(C)(=O)=O)c1ccc(OC)c(OCC)c1)C2=O [Example 33] | < 5 | < 100 | < 100 | < 200 | – | – | – | – | – | – | – | – | – | – | – | – |
| CCCCCc1ccc(NC(=O)CF)c2c1C(=O)N([C@H](CS(C)(=O)=O)c1ccc(OC)c(OCC)c1)C2=O [Example 28, (S)-2-[1-(3-ethoxy-4-methoxyphenyl)-2-alkylsulfonylethyl]-4-fluoroacetamido-7-pentyl isoindoline-1,3-diketone] | 5 to 10 | – | – | – | 1.46 | 24.8 | 0 | 5.83 | 3.69 | 6.44 | 0 | 4.16 | 0.55 | 10.5 | 29.1 | 0.04 |
| CCCCC(=O)c1ccc(NC(C)=O)c2c1C(=O)N([C@H](CS(C)(=O)=O)c1ccc(OC)c(OCC)c1)C2=O [Example 56] | 10 to 50 | < 100 | < 100 | 200 to 500 | – | – | – | – | – | – | – | – | – | – | – | – |
| CCCCCc1ccc(NC(=O)CC)c2c1C(=O)N([C@H](CS(C)(=O)=O)c1ccc(OC)c(OCC)c1)C2=O [Example 13, (S)-2-[1-(3-ethoxy-4-methoxyphenyl)-2-alkylsulfonylethyl]-4-propanamido-7-pentyl isoindoline-1,3-diketone] | 10 to 50 | 100 to 200 | 100 to 200 | 200 to 500 | 5.34 | 51.7 | 0.08 | 13.8 | 3.31 | 0.94 | 14.1 | 20.3 | 0 | 9.96 | 16.3 | -26.7 |
| CCCC#Cc1ccc(NC(C)=O)c2c1C(=O)N([C@H](CS(C)(=O)=O)c1ccc(OC)c(OCC)c1)C2=O [Example 7] | 10 to 50 | – | – | – | 6.8 | 26.5 | 0.08 | 2.65 | 1.81 | 0.06 | 0 | -2.87 | 3.87 | 15.5 | 0 | 1.3 |
| CCCCCc1ccc(NC(=O)CCl)c2c1C(=O)N([C@H](CS(C)(=O)=O)c1ccc(OC)c(OCC)c1)C2=O [Example 25, (S)-2-[1-(3-ethoxy-4-methoxyphenyl)-2-alkylsulfonylethyl]-4-(chloroacetamido)-7-pentyl isoindoline-1,3-diketone] | 10 to 50 | – | – | – | 3.89 | 33.8 | 20.4 | 13.4 | 0 | 0.19 | 0 | 8.17 | 4.98 | 24.6 | 3.02 | 11.1 |
| CCCCc1ccc(NC(=O)CCCCl)c2c1C(=O)N([C@H](CS(C)(=O)=O)c1ccc(OC)c(OCC)c1)C2=O [Example 27, (S)-2-[1-(3-ethoxy-4-methoxyphenyl)-2-alkylsulfonylethyl]-4-(γ-chlorobutyramido)-7-butyl isoindoline-1,3-diketone] | 10 to 50 | – | – | – | 12.1 | 67.5 | 0 | 8.1 | 0 | -1.31 | 0 | 8.14 | 2.21 | 14.7 | 11.9 | 1.01 |
